Reference: patent publication US12421240B2, “Hydropyrazino[1,2-d][1,4]diazepine compounds for the treatment of autoimmune disease” (Hoffmann-La Roche Inc., priority 2019, dated 2025)

Columns and labels:
[1] = Human microsomal stability assay; format: in vitro ADME; settings: human liver microsomes, 1 μM test compound, 0.5 mg/mL protein, 37° C.; low <7.0, medium 7.0-16.2, high 16.2-23.2
Description: Human Microsomal Stability Assay
Human liver microsomes (Cat. NO.: 452117, Corning, USA) were preincubated with test compound for 10 minutes at 37° C. in 100 mM potassium phosphate buffer, pH 7.4. The reactions were initiated by adding NADPH regenerating system. The final incubation mixtures contained 1 μM test compound, 0.5 mg/mL liver microsomal protein, 1 mM MgCl2, 1 mM NADP, 1 unit/mL isocitric dehydrogenase and 6 mM isocitric acid in 100 mM potassium phosphate buffer, pH 7.4. After incubation times of 0, 3, 6, 9, 15 and 30 minutes at 37° C., 300 μL of cold ACN (including internal standard) was added to 100 μL incubation mixture to terminate the reaction. Following precipitation and centrifugation, 100 uL supernatant will be taken out and added 300 uL water. The amount of compound remaining in the samples was determined by LC-MS/MS. Controls of no NADPH regenerating system at zero and 30 minutes were also prepared and analyzed. The results were categorized as: low (<7.0 mL/min/kg), medium (7.0-16.2 mL/min/kg) and high (16.2-23.2 mL/min/kg).

human TLR7 = target: T1, human TLR7 (Homo sapiens, UniProt Q9NYK1); assay: HEK293-Blue-hTLR-7 cells assay (SEAP reporter, R848 stimulation); format: cell-based; settings: HEK293-Blue-hTLR7 cells, R848 ligand, 20 hrs; read-out: HEK/hTLR7 IC50
T1 sequence (Q9NYK1 27-1049): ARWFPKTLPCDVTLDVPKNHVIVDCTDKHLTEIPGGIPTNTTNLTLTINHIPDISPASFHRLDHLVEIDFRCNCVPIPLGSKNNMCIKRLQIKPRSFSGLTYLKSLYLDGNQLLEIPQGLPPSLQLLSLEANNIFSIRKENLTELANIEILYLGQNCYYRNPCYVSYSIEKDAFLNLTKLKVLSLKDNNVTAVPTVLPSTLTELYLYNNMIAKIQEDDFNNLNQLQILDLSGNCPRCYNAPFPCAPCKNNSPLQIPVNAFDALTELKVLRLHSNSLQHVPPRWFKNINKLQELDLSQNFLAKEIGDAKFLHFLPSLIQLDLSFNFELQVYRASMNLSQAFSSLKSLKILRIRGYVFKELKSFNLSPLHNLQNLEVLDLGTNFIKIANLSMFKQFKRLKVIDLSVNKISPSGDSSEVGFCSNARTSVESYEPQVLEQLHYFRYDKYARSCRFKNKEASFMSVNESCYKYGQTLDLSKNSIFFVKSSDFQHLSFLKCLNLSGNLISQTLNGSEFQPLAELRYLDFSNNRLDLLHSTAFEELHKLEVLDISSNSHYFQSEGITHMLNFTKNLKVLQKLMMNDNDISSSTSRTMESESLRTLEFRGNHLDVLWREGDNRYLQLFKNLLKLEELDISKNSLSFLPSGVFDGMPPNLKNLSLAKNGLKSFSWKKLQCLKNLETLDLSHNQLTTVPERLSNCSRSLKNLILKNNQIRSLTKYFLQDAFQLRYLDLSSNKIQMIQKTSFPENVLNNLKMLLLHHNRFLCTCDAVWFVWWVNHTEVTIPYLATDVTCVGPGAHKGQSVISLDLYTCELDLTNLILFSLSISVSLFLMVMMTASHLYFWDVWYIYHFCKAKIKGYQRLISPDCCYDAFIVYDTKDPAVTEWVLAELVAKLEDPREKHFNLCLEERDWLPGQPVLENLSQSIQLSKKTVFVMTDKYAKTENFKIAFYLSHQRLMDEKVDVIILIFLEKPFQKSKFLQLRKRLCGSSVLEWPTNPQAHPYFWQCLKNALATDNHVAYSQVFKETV
Description: The following tests were carried out in order to determine the activity of the compounds of formula (I), (Ia) or (Ib) in HEK293-Blue-hTLR-7/8/9 cells assay.
HEK293-Blue-hTLR-7 Cells Assay:
A stable HEK293-Blue-hTLR-7 cell line was purchased from InvivoGen (Cat. #: hkb-htlr7, San Diego, California, USA). These cells were originally designed for studying the stimulation of human TLR7 by monitoring the activation of NF-κB. A SEAP (secreted embryonic alkaline phosphatase) reporter gene was placed under the control of the IFN-β minimal promoter fused to five NF-κB and AP-1-binding sites. The SEAP was induced by activating NF-κB and AP-1 via stimulating HEK-Blue hTLR7 cells with TLR7 ligands. Therefore the reporter expression was declined by TLR7 antagonist under the stimulation of a ligand, such as R848 (Resiquimod), for incubation of 20 hrs. The cell culture supernatant SEAP reporter activity was determined using QUANTI-Blue™ kit (Cat. #: rep-qb1, Invivogen, San Diego, Ca., USA) at a wavelength of 640 nm, a detection medium that turns purple or blue in the presence of alkaline phosphatase.
HEK293-Blue-hTLR7 cells were incubated at a density of 250,000-450,000 cells/mL in a volume of 170 μL in a 96-well plate in Dulbecco's Modified Eagle's medium (DMEM) containing 4.5 g/L glucose, 50 U/mL penicillin, […], […], 2 mM L-glutamine, 10% (v/v) heat-inactivated fetal bovine serum with addition of 20 μL test compound in a serial dilution in the presence of final DMSO at 1% and 10 μL of 20 uM R848 in above DMEM, perform incubation under 37° C. in a CO2 incubator for 20 hrs. Then 20 μL of the supernatant from each well was incubated with 180 μL Quanti-blue substrate solution at 37° C. for 2 hrs and the absorbance was read at 620655 nm using a spectrophotometer. The signaling pathway that TLR7 activation leads to downstream NF-κB activation has been widely accepted, and therefore similar reporter assay was modified for evaluating TLR7 antagonist.

SMILES | CL (h) [1] | IC50 (human TLR7)
C[C@@H]1CN(c2ccc(C#N)c3ncccc23)C[C@@H]2CCN(Cc3ccc4c(c3)CCNC4)CCN21 [Example 11, 5-[(4R,10aS)-4-methyl-8-(1,2,3,4-tetrahydroisoquinolin-6-ylmethyl)-1,3,4,6,7,9,10,10a-octahydropyrazino[1,2-d][1,4]diazepin-2-yl]quinoline-8-carbonitrile] | 8.2 mL/min/kg | 6.1 nM
C[C@@H]1CN(c2ccc(C#N)c3ncccc23)C[C@@H]2CCN(Cc3ncc(N4CCNCC4)cn3)CCN21 [Example 13, 5-[(4R,10aS)-4-methyl-8-[(5-piperazin-1-ylpyrimidin-2-yl)methyl]-1,3,4,6,7,9,10,10a-octahydropyrazino[1,2-d][1,4]diazepin-2-yl]quinoline-8-carbonitrile] |  | 49.6 nM
C[C@@H]1CN(c2ccc(C#N)c3ncccc23)C[C@@H]2CCN(Cc3cnc(N4CCNCC4)nc3)CCN21 [Example 14, 5-[(4R,10aS)-4-methyl-8-[(2-piperazin-1-ylpyrimidin-5-yl)methyl]-1,3,4,6,7,9,10,10a-octahydropyrazino[1,2-d][1,4]diazepin-2-yl]quinoline-8-carbonitrile] | 9.8 mL/min/kg | 1.8 nM
C[C@@H]1CN(c2ccc(C#N)c3ncccc23)C[C@@H]2CCN(Cc3cnc(N4CCNCC4)cn3)CCN21 [Example 15, 5-[(4R,10aS)-4-methyl-8-[(5-piperazin-1-ylpyrazin-2-yl)methyl]-1,3,4,6,7,9,10,10a-octahydropyrazino[1,2-d][1,4]diazepin-2-yl]quinoline-8-carbonitrile] | 9.9 mL/min/kg | 2.2 nM
C[C@@H]1CN(c2ccc(C#N)c3ncccc23)C[C@@H]2CCN(Cc3cncc(N4CCNCC4)c3)CCN21 [Example 16, 5-[(4R,10aS)-4-methyl-8-[(5-piperazin-1-yl-3-pyridyl)methyl]-1,3,4,6,7,9,10,10a-octahydropyrazino[1,2-d][1,4]diazepin-2-yl]quinoline-8-carbonitrile] |  | 11.1 nM
C[C@@H]1CN(c2ccc(C#N)c3ncccc23)C[C@@H]2CCN(Cc3ccc(N4CCNCC4)nc3)CCN21 [Example 17, 5-[(4R,10aS)-4-methyl-8-[(6-piperazin-1-yl-3-pyridyl)methyl]-1,3,4,6,7,9,10,10a-octahydropyrazino[1,2-d][1,4]diazepin-2-yl]quinoline-8-carbonitrile] | 9.2 mL/min/kg | 1.2 nM
C[C@@H]1CN(c2ccc(C#N)c3ncccc23)C[C@@H]2CCN(Cc3cccc(N4CCNCC4)n3)CCN21 [Example 18, 5-[(4R,10aS)-4-methyl-8-[(6-piperazin-1-yl-2-pyridyl)methyl]-1,3,4,6,7,9,10,10a-octahydropyrazino[1,2-d][1,4]diazepin-2-yl]quinoline-8-carbonitrile] |  | 12.1 nM
C[C@@H]1CN(c2ccc(C#N)c3ncccc23)C[C@@H]2CCN(Cc3ccc(N4CCNCC4)cn3)CCN21 [Example 19, 5-[(4R,10aS)-4-methyl-8-[(5-piperazin-1-yl-2-pyridyl)methyl]-1,3,4,6,7,9,10,10a-octahydropyrazino[1,2-d][1,4]diazepin-2-yl]quinoline-8-carbonitrile] |  | 4.8 nM
C[C@@H]1CN(c2ccc(C#N)c3ncccc23)C[C@@H]2CCN(Cc3ccc(N4C[C@@H](N)[C@@H](F)C4)cn3)CCN21 [Example 20, 5-[(4R,10aS)-8-[[5-[(3R,4S)-3-amino-4-fluoro-pyrrolidin-1-yl]-2-pyridyl]methyl]-4-methyl-1,3,4,6,7,9,10,10a-octahydropyrazino[1,2-d][1,4]diazepin-2-yl]quinoline-8-carbonitrile] |  | 1.6 nM
C[C@@H]1CN(c2ccc(C#N)c3ncccc23)C[C@@H]2CCN(Cc3ccc(N4CCOC[C@H](N)C4)cn3)CCN21 [Example 21, 5-[(4R,10aS)-8-[[5-[(6R)-6-amino-1,4-oxazepan-4-yl]-2-pyridyl]methyl]-4-methyl-1,3,4,6,7,9,10,10a-octahydropyrazino[1,2-d][1,4]diazepin-2-yl]quinoline-8-carbonitrile] | 8.5 mL/min/kg | 59.9 nM
CO[C@@H]1CN(c2ccc(CN3CC[C@H]4CN(c5ccc(C#N)c6ncccc56)C[C@@H](C)N4CC3)nc2)C[C@H]1N [Example 22, 5-[(4R,10aS)-8-[[5-[(3R,4R)-3-amino-4-methoxy-pyrrolidin-1-yl]-2-pyridyl]methyl]-4-methyl-1,3,4,6,7,9,10,10a-octahydropyrazino[1,2-d][1,4]diazepin-2-yl]quinoline-8-carbonitrile] |  | 4.9 nM
C[C@@H]1CN(c2ccc(C#N)c3ncccc23)C[C@@H]2CCN(Cc3ncc(N4CCNCC4)cc3F)CCN21 [Example 23, 5-[(4R,10aS)-8-[(3-fluoro-5-piperazin-1-yl-2-pyridyl)methyl]-4-methyl-1,3,4,6,7,9,10,10a-octahydropyrazino[1,2-d][1,4]diazepin-2-yl]quinoline-8-carbonitrile] | 8.8 mL/min/kg | 2.9 nM
CO[C@@H]1CN(c2cnc(CN3CC[C@H]4CN(c5ccc(C#N)c6ncccc56)C[C@@H](C)N4CC3)c(F)c2)C[C@H]1N [Example 24, 5-[(4R,10aS)-8-[[5-[(3R,4R)-3-amino-4-methoxy-pyrrolidin-1-yl]-3-fluoro-2-pyridyl]methyl]-4-methyl-1,3,4,6,7,9,10,10a-octahydropyrazino[1,2-d][1,4]diazepin-2-yl]quinoline-8-carbonitrile] | 9.4 mL/min/kg | 3.2 nM
CO[C@@H]1CN(c2cnc(CN3CC[C@H]4CN(c5ccc(C#N)n6nccc56)C[C@@H](C)N4CC3)c(F)c2)C[C@H]1N [Example 26, 4-[(4R,10aS)-8-[[5-[(3R,4R)-3-amino-4-methoxy-pyrrolidin-1-yl]-3-fluoro-2-pyridyl]methyl]-4-methyl-1,3,4,6,7,9,10,10a-octahydropyrazino[1,2-d][1,4]diazepin-2-yl]pyrazolo[1,5-a]pyridine-7-carbonitrile] |  | 35.8 nM
CO[C@@H]1CN(c2cnc(CN3CC[C@H]4CN(c5ccc(C#N)n6ncc(F)c56)C[C@@H](C)N4CC3)c(F)c2)C[C@H]1N [Example 27, 4-[(4R,10aS)-8-[[5-[(3R,4R)-3-amino-4-methoxy-pyrrolidin-1-yl]-3-fluoro-2-pyridyl]methyl]-4-methyl-1,3,4,6,7,9,10,10a-octahydropyrazino[1,2-d][1,4]diazepin-2-yl]-3-fluoro-pyrazolo[1,5-a]pyridine-7-carbonitrile] |  | 8.5 nM
